Source: ChEMBL document CHEMBL4130373, “Design, synthesis and biological evaluation of 4-anilinoquinoline derivatives as novel potent tubulin depolymerization agents” (Eur J Med Chem, 2017)
Active and inactive are the calls of the source. No cut-off for these calls is given here.

Experiments:
[1] = Resistance index, ratio of IC50 for human MCF7/ADR cells to IC50 for human MCF7 cells; format: functional
[2] = tested on: A2780S; assay: Cell cycle arrest in human A2780S cells assessed as accumulation at G2/M phase after 24 hrs by propidium iodide staining based flow cytometry; format: functional
[3] = tested on: MCF7; assay: Antiproliferative activity against human MCF7 cells after 48 hrs by MTT assay; format: functional, cell-based; details: MCF7, 48 h
[4] = tested on: Mus musculus; assay: Toxicity in Balb/c athymic nude mouse xenografted with human HCT116 cells assessed as effect on feeding behaviour at 2.5 mg/kg administered once in every 2 days; format: organism-based; details: in vivo, 48 h
[5] = tested on: A549; assay: Antiproliferative activity against human A549 cells after 48 hrs by MTT assay; format: functional, cell-based; details: A549, 48 h
[6] = tested on: NCI/ADR-RES; assay: Antiproliferative activity against human MCF7/ADR cells after 48 hrs by MTT assay; format: functional, cell-based
[7] = tested on: HEK293; assay: Antiproliferative activity against HEK293 cells after 48 hrs by MTT assay; format: cell-based; details: Homo sapiens, HEK293, 48 h; read-out: IC50
[8] = tested on: A2780S; assay: Cell cycle arrest in human A2780S cells assessed as accumulation at G2/M phase at 3 nM after 24 hrs by propidium iodide staining based flow cytometry (reference value: 15.34%); format: functional
[9] = Solubility of the compound in physiological saline at 1 mg; format: physicochemical; details: buffer
[10] = tested on: A2780/Taxol; assay: Antiproliferative activity against human A2780T cells after 48 hrs by MTT assay; format: functional, cell-based
[11] = Resistance index, ratio of IC50 for human HCT8/T cells to IC50 for human HCT8 cells; format: functional
[12] = Antiproliferative activity against human HCT8/T cells after 48 hrs by MTT assay; format: functional, cell-based; details: HCT-8, 48 h
[13] = tested on: HCT-116; assay: Antitumor activity against human HCT116 cells xenografted in Balb/c athymic nude mouse assessed as tumor growth inhibition at 2.5 mg/kg administered once in every 2 days measured on day 18 post treatment relative to control; format: functional; details: read-out: TGI
[14] = species on record: Sus scrofa; assay: Inhibition of porcine brain tubulin polymerization preincubated for 5 mins followed by GTP addition measured every 2 mins by spectrophotometric method
[15] = tested on: MDA-MB-231; assay: Antiproliferative activity against human MDA-MB-231 cells after 48 hrs by MTT assay; format: functional, cell-based; details: MDA-MB-231, 48 h
[16] = tested on: A2780S; assay: Cell cycle arrest in human A2780S cells assessed as accumulation at S phase at 3 nM after 24 hrs by propidium iodide staining based flow cytometry (reference value: 40.36%); format: functional
[17] = tested on: HCT-116; assay: Antiproliferative activity against human HCT116 cells after 48 hrs by MTT assay; format: functional, cell-based; details: HCT-116, 48 h
[18] = tested on: A2780S; assay: Cell cycle arrest in human A2780S cells assessed as accumulation at G0/G1 phase at 30 nM after 24 hrs by propidium iodide staining based flow cytometry (reference value: 44.3%); format: functional
[19] = tested on: HCT-8; assay: Antiproliferative activity against human HCT8 cells after 48 hrs by MTT assay; format: functional, cell-based; details: HCT-8, 48 h
[20] = tested on: A2780S; assay: Cell cycle arrest in human A2780S cells assessed as accumulation at G0/G1 phase at 10 nM after 24 hrs by propidium iodide staining based flow cytometry (reference value: 44.3%); format: functional
[21] = tested on: Mus musculus; assay: Toxicity in Balb/c athymic nude mouse xenografted with human HCT116 cells assessed as abnormal behaviour at 2.5 mg/kg administered once in every 2 days; format: organism-based; details: in vivo, 48 h
[22] = tested on: L02; assay: Antiproliferative activity against human LO2 cells after 48 hrs by MTT assay; format: cell-based; details: L02, 48 h
[23] = Resistance index, ratio of IC50 for human HCT8/V cells to IC50 for human HCT8 cells; format: functional
[24] = tested on: A2780S; assay: Cell cycle arrest in human A2780S cells assessed as accumulation at G2/M phase at 30 nM after 24 hrs by propidium iodide staining based flow cytometry (reference value: 15.34%); format: functional
[25] = tested on: A2780S; assay: Antiproliferative activity against human A2780S cells after 48 hrs by MTT assay; format: functional, cell-based
[26] = tested on: A2780S; assay: Cell cycle arrest in human A2780S cells assessed as accumulation at S phase at 10 nM after 24 hrs by propidium iodide staining based flow cytometry (reference value: 40.36%); format: functional
[27] = tested on: Mus musculus; assay: Toxicity in Balb/c athymic nude mouse xenografted with human HCT116 cells assessed as body weight loss at 2.5 mg/kg administered once in every 2 days relative to control; format: organism-based; details: in vivo, 48 h
[28] = tested on: A2780S; assay: Induction of alpha-tubulin depolymerization in human A2780S cells at 5 to 50 nM after 24 hrs by DAPI staining based immunofluorescence microscopic method; format: cell-based
[29] = tested on: A2780S; assay: Cell cycle arrest in human A2780S cells assessed as accumulation at G2/M phase at 10 nM after 24 hrs by propidium iodide staining based flow cytometry (reference value: 15.34%); format: functional
[30] = tested on: A2780S; assay: Cell cycle arrest in human A2780S cells assessed as accumulation at G0/G1 phase at 3 nM after 24 hrs by propidium iodide staining based flow cytometry (reference value: 44.3%); format: functional
[31] = Antiproliferative activity against human HCT8/V cells after 48 hrs by MTT assay; format: functional, cell-based; details: HCT-8, 48 h
[32] = tested on: A2780S; assay: Cell cycle arrest in human A2780S cells assessed as accumulation at S phase at 30 nM after 24 hrs by propidium iodide staining based flow cytometry (reference value: 40.36%); format: functional
[33] = Resistance index, ratio of IC50 for human A2780T cells to IC50 for human A2780S cells; format: functional
[34] = tested on: HepG2; assay: Binding affinity to beta-tubulin colchicine binding site in human HepG2 cells assessed as reduction in EBI-beta-tubulin adduct formation preincubated for 2 hrs followed by EBI addition measured after 1.5 hrs by Western blot analysis; format: cell-based

## COc1ccc(N(C)c2cc(C)nc3ccccc23)cc1NC(=O)CCCCl
[1]
  Ratio IC50: 2.3
[2]
  Activity: Dose-dependent effect
[3]
  IC50: 1.5 nM
[4]
  Activity: Non-Toxic
[5]
  IC50: 3.2 nM
[6]
  IC50: 3.3 nM
[7]
  IC50: 45.3 nM
[8]
  Activity: 39.48%
[9]
  solubility: Soluble
[10]
  IC50: 3.7 nM
[11]
  Ratio IC50: 1
[12]
  IC50: 3.5 nM
[13]
  inhibition in vivo at 2.5 mg/kg: 54.3%
[14]
  inhibition: Dose-dependent effect
[15]
  IC50: 3.9 nM
[16]
  Activity: 32.57%
[17]
  IC50: 2.7 nM
[18]
  Activity: 2.3%
[19]
  IC50: 3.4 nM
[20]
  Activity: 2.68%
[21]
  Activity: Non-Toxic
[22]
  IC50: 75.6 nM
[23]
  Ratio IC50: 1
[24]
  Activity: 80.67%
[25]
  IC50: 2.2 nM
[26]
  Activity: 22.69%
[27]
  Activity: < 10%
[28]
  Activity: Active
[29]
  Activity: 74.62%
[30]
  Activity: 27.95%
[31]
  IC50: 3.5 nM
[32]
  Activity: 17.03%
[33]
  Ratio IC50: 1.7
[34]
  Activity: Dose-dependent effect
